Test results published in article PMC6689897, “Drugging an undruggable pocket on KRAS” (Proceedings of the National Academy of Sciences of the …, 2019).

Target: GTP-KRASG12D::SOS1 (Homo sapiens, UniProt P01116, G12D)
Assay: Alpha Screen PPI assay
Type: biochemical
Settings: duplicate
Method: page 6: 217 The coordinates and structure factors of the structures have been deposited at the 218 Protein Data Bank with the accession codes PDB Code 6GJ5, 6GJ6, 6GJ7, 6GJ8. 219 220 Alpha Screen Assays 221 Measurements of various protein-protein interactions were performed using the Alpha 222 Screen technology developed by Perkin Elmer. Recombinant RAS proteins (H-, […] RAS variants; all KRAS variants are based on KRAS isoform 4B (uniprot id P01116-2); 224 KRAS (G12D) 1-169, N-terminal 6His-tag, C-terminal avi-tag was from Xtal 225 BioStructures, Inc., KRAS (G12C) 1-169, C-terminal avi-tag, biotinylated, mutations: 226 C51S, C80L, C118S, NRAS(wt) 1-172, C-terminal avi-tag, biotinylated; HRAS(wt) 1- 227 166, C-terminal avi-tag, biotinylated). Biotinylation was performed in vitro with 228 recombinant BirA biotin-protein ligase as recommended by the manufacturer (Avidity 229 LLC, Aurora, Colorado, USA). Interacting proteins such as SOS1 (564-1049, N-terminal 230 GST-tag, TEV cleavage site), cRaf (1-303, N-terminal GST-tag, TEV cleavage site) and 231 PI3KA- RBD (160-317, N-term-HIS_GST-tag) were expressed as glutathione S 232 transferase (GST) fusions. […] Single oxygen induced fluorescence was 246 measured at an Enspire multimode plate reader (Perkin Elmer) according to the 247 manufacturer's recommendations. Data were analyzed using the GraphPad Prism data 248 software. […]

Sequence of GTP-KRASG12D::SOS1 (P01116 1-169 isoform P01116-2 G12D): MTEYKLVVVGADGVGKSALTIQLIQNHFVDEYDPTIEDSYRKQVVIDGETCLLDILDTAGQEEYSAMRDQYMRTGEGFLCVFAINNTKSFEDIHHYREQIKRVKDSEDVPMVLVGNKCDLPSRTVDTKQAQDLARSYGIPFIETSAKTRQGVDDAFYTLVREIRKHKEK

Compound	IC50
C=CC(=O)N1CCN(c2ncnc3c(F)c(-c4c(O)cccc4F)c(Cl)cc23)CC1 [ARS-1620, reference compound]	> 10000 nM
Cn1cnc(Cn2ccc3ccc(CNCc4[nH]c5ccccc5c4[C@H]4NC(=O)c5ccc(O)cc54)cc32)c1 [Compound 1]	490 nM
